Drawing on patent US6620839B2, “1,3-disubstituted and 1,3,3-trisubstituted pyrrolidines as histamine-3 receptor ligands and their therapeutic applications” (Abbott Laboratories, priority 2000, dated 2003), this text covers Ki for 39 molecules.

In this experiment the target is T1, histamine-3 receptor (Rattus norvegicus, UniProt Q9QYN8).
T1 construct: from tissue; host or cells: male Sprague-Dawley rat brain cortex membranes
T1 sequence (Q9QYN8 whole entry): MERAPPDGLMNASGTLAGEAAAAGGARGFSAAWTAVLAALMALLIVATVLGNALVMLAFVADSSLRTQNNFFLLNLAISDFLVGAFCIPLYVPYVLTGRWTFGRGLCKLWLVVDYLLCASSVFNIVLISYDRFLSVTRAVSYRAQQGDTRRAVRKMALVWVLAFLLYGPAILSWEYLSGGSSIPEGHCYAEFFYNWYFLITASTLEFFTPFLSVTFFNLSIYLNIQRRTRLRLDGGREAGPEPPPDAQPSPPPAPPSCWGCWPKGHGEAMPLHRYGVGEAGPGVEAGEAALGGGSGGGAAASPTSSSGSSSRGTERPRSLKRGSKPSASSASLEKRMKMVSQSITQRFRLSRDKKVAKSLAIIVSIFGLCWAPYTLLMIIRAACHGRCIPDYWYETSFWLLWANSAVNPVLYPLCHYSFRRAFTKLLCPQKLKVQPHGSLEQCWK
Briefly: Histamine-3 receptor binding, (3H)-N-α-methylhistamine displacement in rat cortical membranes. As to conditions: male Sprague-Dawley rat brain cortical membranes; (3H)-N-α-methylhistamine ~0.6 nM; 30 minutes at 25° C.; Cheng-Prusoff. An outline of the steps: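 Male Sprague-Dawley rat cortical membranes incubated 30 min at 25 °C with compound dilutions and [3H]-N-α-methylhistamine. Nonspecific binding defined with 3 μM thioperamide. Filtration and scintillation counting used; Ki from Hill transformation and Cheng-Prusoff equation.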
As usually defined, the Ki is the equilibrium dissociation constant of an inhibitor or competing ligand from its target. Higher therefore signals lower affinity. `CN(C(=O)c1cccnc1)[C@@H]1CCN(CCCOc2ccc(-c3ccc(C#N)cc3)cc2)C1` [Example 121]: affinity was put at a Ki of 16 nM. The same measure for `O=C(N[C@@H]1CCN(CCCOc2ccc(C(=O)C3CC3)cc2)C1)c1csc(-c2cccnc2)n1` [Example 13, N-((3R)-1-{3-[4-(cyclopropylcarbonyl)phenoxy]propyl}pyrrolidinyl)-2-(3-pyridinyl)-1,3-thiazole-4-carboxamide]: 50 nM; for `CC(=O)c1ccc(OCCCN2CC[C@@H](NC(=O)C3CC3)C2)cc1` [Example 1, N-{(3R)-1-[3-(4-acetylphenoxy)propyl]pyrrolidinyl}cyclopropanecarboxamide]: 105 nM; for `N#Cc1ccc(-c2ccc(OCCCN3CC[C@@H](NS(=O)(=O)c4ccccc4F)C3)cc2)cc1` [Example 29]: 5.9 nM. The molecule `N#Cc1ccc(-c2ccc(OCCCN3CC[C@@H](NS(=O)(=O)c4cccc(C#N)c4)C3)cc2)cc1` [Example 34, 3-cyano-N-((3R)-1-{3-[(4′-cyano[1,1′-biphenyl]-4-yl)oxy]propyl}pyrrolidinyl)benzenesulfonamide] yielded a Ki of 11 nM. Under `O=C(c1ccc(OCCCN2CC[C@@H](NS(=O)(=O)c3cccc(F)c3)C2)cc1)C1CC1` [Example 93, N-((3R)-1-{3-[4-(cyclopropylcarbonyl)phenoxy]propyl}pyrrolidinyl)-3-fluorobenzenesulfonamide] stands 3.2 nM; under `Cc1cc(C#N)ccc1-c1ccc(OCCCN2CC[C@@H](N(C)C)C2)cc1` [Example 165, 4′-{3-[(3R)-3-(dimethylamino)-1-pyrrolidinyl]propoxy}-2-methyl-1,1′-biphenyl-4-carbonitrile], 17 nM. The same measure for `N#Cc1ccc(-c2ccc(OCCCN3CC[C@@H](NC(=O)N4CCOCC4)C3)cc2)cc1` [Example 138]: 118 nM; for `CC(=O)c1ccc(OCCCN2CC[C@@H](NC(=O)c3ccc(C#N)cc3)C2)cc1` [Example 14, N-{(3R)-1-[3-(4-acetylphenoxy)propyl]pyrrolidinyl}-4-cyanobenzamide]: 40 nM; for `Cn1cnc(S(=O)(=O)N[C@@H]2CCN(CCCOc3ccc(-c4ccc(C#N)cc4)cc3)C2)c1` [Example 35]: 13 nM. The same measure for `O=C(c1ccc(OCCCN2CC[C@@H](NS(=O)(=O)c3ccccc3F)C2)cc1)C1CC1` [Example 68, N-((3R)-1-{3-[4-(cyclopropylcarbonyl)phenoxy]propyl}pyrrolidinyl)-2-fluorobenzenesulfonamide]: 2.8 nM; for `O=C(c1ccc(OCCCN2CC[C@@H](NS(=O)(=O)c3cccc(Cl)c3)C2)cc1)C1CC1` [Example 70, 3-chloro-N-((3R)-1-{3-[4-(cyclopropylcarbonyl)phenoxy]propyl}pyrrolidinyl)benzenesulfonamide]: 3 nM. On to `O=C(c1ccc(OCCCN2CC[C@@H](NS(=O)(=O)c3ccc(Cl)cc3)C2)cc1)C1CC1` [Example 58, 4-chloro-N-((3R)-1-{3-[4-(cyclopropylcarbonyl)phenoxy]propyl}pyrrolidinyl)benzenesulfonamide], for which the Ki stood at 3.9 nM.

As for `COc1ccc(S(=O)(=O)N[C@@H]2CCN(CCCOc3ccc(-c4ccc(C#N)cc4)cc3)C2)cc1OC` [Example 42], the affinity, expressed as Ki, was 8.8 nM. The same measure for `CN(C(=O)NC(C)(C)C)[C@@H]1CCN(CCCOc2ccc(-c3ccc(C#N)cc3)cc2)C1` [Example 117, N′-tert-butyl-N-((3R)-1-{3-[(4′-cyano[1,1′-biphenyl]-4-yl)oxy]propyl}pyrrolidinyl)-N-methylurea]: 45 nM; for `CN(C)[C@@H]1CCN(CCCOc2ccc(-c3ccc(C#N)cc3)cc2Cl)C1` [Example 171, 3′-chloro-4′-{3-[(3R)-3-(dimethylamino)-1-pyrrolidinyl]propoxy}-1,1′-biphenyl-4-carbonitrile]: 41 nM. The same measure for `Cn1cnc(S(=O)(=O)N[C@@H]2CCN(CCCOc3ccc(C(=O)C4CC4)cc3)C2)c1` [Example 80, N-((3R)-1-{3-[4-(cyclopropylcarbonyl)phenoxy]propyl}pyrrolidinyl)-1-methyl-1H-imidazole-4-sulfonamide]: 10 nM; for `CS(=O)(=O)c1ccc(S(=O)(=O)N[C@@H]2CCN(CCCOc3ccc(-c4ccc(C#N)cc4)cc3)C2)cc1` [Example 146]: 3 nM. In turn, `CC(=O)c1ccc(OCCCN2CC[C@@H](NS(=O)(=O)c3ccc(C#N)cc3)C2)cc1` [Example 5, N-{(3R)-1-[3-(4-acetylphenoxy)propyl]pyrrolidinyl}-4-cyanobenzenesulfonamide] displayed a Ki of 6.3 nM.

As to `CCC(C)(C)OC(=O)N[C@@H]1CCN(CCCOc2ccc(-c3ccc(C#N)cc3)cc2)C1` [Example 134, tert-pentyl (3R)-1-{3-[(4′-cyano[1,1′-biphenyl]-4-yl)oxy]propyl}pyrrolidinylcarbamate], the Ki came to 168 nM. Under `O=C(c1ccc(OCCCN2CC[C@@H](NS(=O)(=O)c3ccc(OC(F)(F)F)cc3)C2)cc1)C1CC1` [Example 94, N-((3R)-1-{3-[4-(cyclopropylcarbonyl)phenoxy]propyl}pyrrolidinyl)-4-(trifluoromethoxy)benzenesulfonamide] stands 4.9 nM. `CC(C)c1ccc(S(=O)(=O)N[C@@H]2CCN(CCCOc3ccc(-c4ccc(C#N)cc4)cc3)C2)cc1` [Example 28] had an inhibition constant (Ki) of 16 nM. The same measure for `COC(=O)N[C@@H]1CCN(CCCOc2ccc(-c3ccc(C#N)cc3)cc2)C1` [Example 133, methyl (3R)-1-{3-[(4′-cyano[1,1′-biphenyl]-4-yl)oxy]propyl}pyrrolidinylcarbamate]: 57 nM; for `CC(C)(C)c1ccc(S(=O)(=O)N[C@@H]2CCN(CCCOc3ccc(C(=O)C4CC4)cc3)C2)cc1` [Example 60, 4-tert-butyl-N-((3R)-1-{3-[4-(cyclopropylcarbonyl)phenoxy]propyl}pyrrolidinyl)benzenesulfonamide]: 5.2 nM; for `N#Cc1ccc(-c2ccc(OCCCN3CC[C@@H](NS(=O)(=O)c4cccc(Cl)c4)C3)cc2)cc1` [Example 31, 3-chloro-N-((3R)-1-{3-[(4′-cyano[1,1′-biphenyl]-4-yl)oxy]propyl}pyrrolidinyl)benzenesulfonamide]: 30 nM. `Cc1ccc(S(=O)(=O)N[C@@H]2CCN(CCCOc3ccc(-c4ccc(C#N)cc4)cc3)C2)cc1Cl` [Example 43, 3-chloro-N-((3R)-1-{3-[(4′-cyano[1,1′-biphenyl]-4-yl)oxy]propyl}pyrrolidinyl)-4-methylbenzenesulfonamide] gave a Ki of 37 nM. On to `CC(=O)Nc1ccc(S(=O)(=O)N[C@@H]2CCN(CCCOc3ccc(-c4ccc(C#N)cc4)cc3)C2)cc1` [Example 19, N-(4-{[((3R)-1-{3-[(4′-cyano[1,1′-biphenyl]-4-yl)oxy]propyl}pyrrolidinyl)amino]sulfonyl}phenyl)acetamide], for which the affinity corresponds to a Ki of 3.8 nM. The same measure for `CC(C)c1ccc(S(=O)(=O)N[C@@H]2CCN(CCCOc3ccc(-c4ccccn4)cc3)C2)cc1` [Example 102, 4-isopropyl-N-((3R)-1-{3-[4-(2-pyridinyl)phenoxy]propyl}pyrrolidinyl)benzenesulfonamide]: 112 nM.

On to `O=C(c1ccc(OCCCN2CC[C@@H](NS(=O)(=O)c3cccc4ccncc34)C2)cc1)C1CC1` [Example 95, N-((3R)-1-{3-[4-(cyclopropylcarbonyl)phenoxy]propyl}pyrrolidinyl)-8-isoquinolinesulfonamide], for which the Ki was determined as 4.6 nM.

Regarding `CN(C)[C@@H]1CCN(CCCOc2c(F)cc(-c3ccc(C#N)cc3)cc2F)C1` [Example 172, 4′-{3-[(3R)-3-(dimethylamino)-1-pyrrolidinyl]propoxy}-3′,5′-difluoro-1,1′-biphenyl-4-carbonitrile], the Ki turned out to be 13 nM.

In turn, `O=C(c1ccc(OCCCN2CC[C@@H](NS(=O)(=O)c3ccc(F)cc3)C2)cc1)C1CC1` [Example 57, N-((3R)-1-{3-[4-(cyclopropylcarbonyl)phenoxy]propyl}pyrrolidinyl)-4-fluorobenzenesulfonamide] yielded a Ki of 3.6 nM. Under `CN(C(=O)c1ccc(F)cc1)[C@@H]1CCN(CCCOc2ccc(-c3ccc(C#N)cc3)cc2)C1` [Example 119] stands 7.7 nM; under `N#Cc1ccc(-c2ccc(OCCCN3CC[C@@H](NS(=O)(=O)c4cc(C(F)(F)F)cc(C(F)(F)F)c4)C3)cc2)cc1` [Example 38], 132 nM; under `N#Cc1ccc(-c2ccc(OCCCN3CC[C@@H](NS(=O)(=O)c4ccccc4C#N)C3)cc2)cc1` [Example 46, 2-cyano-N-((3R)-1-{3-[(4′-cyano[1,1′-biphenyl]-4-yl)oxy]propyl}pyrrolidinyl)benzenesulfonamide], 103 nM. With `CC(=O)c1ccc(OCCCN2CC[C@@H](N3C(=O)N[C@H](C(C)C)C3=O)C2)cc1` [Example 10, (5R)-3-{(3R)-1-[3-(4-acetylphenoxy)propyl]pyrrolidinyl}-5-isopropyl-2,4-imidazolidinedione], the Ki worked out at 626 nM. `CC(=O)N[C@@H]1CCN(CCCOc2ccc(-c3ccc(C#N)cc3)cc2)C1` [Example 130]: the Ki was determined as 31 nM. Under `Cc1c(S(=O)(=O)N[C@@H]2CCN(CCCOc3ccc(-c4ccc(C#N)cc4)cc3)C2)sc2ccc(Cl)cc12` [Example 37, 5-chloro-N-((3R)-1-{3-[(4′-cyano[1,1′-biphenyl]-4-yl)oxy]propyl}pyrrolidinyl)-3-methyl-1-benzothiophene-2-sulfonamide] stands 349 nM; under `N#Cc1cccc(S(=O)(=O)N[C@@H]2CCN(CCCOc3ccc(-c4ccccn4)cc3)C2)c1` [Example 104, 3-cyano-N-((3R)-1-{3-[4-(2-pyridinyl)phenoxy]propyl}pyrrolidinyl)benzenesulfonamide], 173 nM; under `N#Cc1ccc(-c2ccc(OCCCN3CC[C@@H](NS(=O)(=O)c4cc(Cl)cc(Cl)c4)C3)cc2)cc1` [Example 32, 3,5-dichloro-N-((3R)-1-{3-[(4′-cyano[1,1′-biphenyl]-4-yl)oxy]propyl}pyrrolidinyl)benzenesulfonamide], 99 nM.
